The values below come from US11713338B2, “Cyclic peptides multimers targeting α-4-β-7 integrin” (priority 2016, dated 2023).

The target of this test is T1, recombinant integrin α4β7 (Homo sapiens, UniProt P13612+P26010, DEL724-798).
T1 construct: purchased R&D Systems 5397-A3-050
T1 sequence (P13612 34-970 limits assumed): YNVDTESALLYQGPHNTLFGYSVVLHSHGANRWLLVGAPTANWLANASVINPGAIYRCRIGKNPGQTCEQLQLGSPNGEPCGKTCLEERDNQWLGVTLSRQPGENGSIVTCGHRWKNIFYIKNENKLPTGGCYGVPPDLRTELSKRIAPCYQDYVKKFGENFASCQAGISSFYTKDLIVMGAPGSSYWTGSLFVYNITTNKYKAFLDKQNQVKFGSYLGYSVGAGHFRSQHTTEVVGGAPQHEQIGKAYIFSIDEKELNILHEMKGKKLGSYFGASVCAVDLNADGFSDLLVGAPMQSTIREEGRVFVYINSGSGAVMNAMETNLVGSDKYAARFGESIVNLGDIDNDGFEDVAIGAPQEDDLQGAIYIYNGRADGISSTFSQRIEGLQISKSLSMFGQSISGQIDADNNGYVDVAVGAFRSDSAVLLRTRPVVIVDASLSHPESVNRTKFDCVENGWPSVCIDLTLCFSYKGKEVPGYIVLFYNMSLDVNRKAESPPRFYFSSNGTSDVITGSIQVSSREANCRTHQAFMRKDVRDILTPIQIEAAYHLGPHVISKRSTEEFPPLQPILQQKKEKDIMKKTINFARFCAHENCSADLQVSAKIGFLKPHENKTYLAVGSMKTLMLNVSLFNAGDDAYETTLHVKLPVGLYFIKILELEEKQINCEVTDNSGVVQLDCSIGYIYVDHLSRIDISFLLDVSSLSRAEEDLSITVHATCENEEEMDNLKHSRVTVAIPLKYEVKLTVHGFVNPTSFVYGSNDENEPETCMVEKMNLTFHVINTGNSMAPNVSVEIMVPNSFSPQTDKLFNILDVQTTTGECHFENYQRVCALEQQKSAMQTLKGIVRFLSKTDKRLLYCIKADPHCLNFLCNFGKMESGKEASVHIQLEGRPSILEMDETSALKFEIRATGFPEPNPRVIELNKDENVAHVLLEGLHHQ
T1 sequence (P26010 20-723 limits assumed): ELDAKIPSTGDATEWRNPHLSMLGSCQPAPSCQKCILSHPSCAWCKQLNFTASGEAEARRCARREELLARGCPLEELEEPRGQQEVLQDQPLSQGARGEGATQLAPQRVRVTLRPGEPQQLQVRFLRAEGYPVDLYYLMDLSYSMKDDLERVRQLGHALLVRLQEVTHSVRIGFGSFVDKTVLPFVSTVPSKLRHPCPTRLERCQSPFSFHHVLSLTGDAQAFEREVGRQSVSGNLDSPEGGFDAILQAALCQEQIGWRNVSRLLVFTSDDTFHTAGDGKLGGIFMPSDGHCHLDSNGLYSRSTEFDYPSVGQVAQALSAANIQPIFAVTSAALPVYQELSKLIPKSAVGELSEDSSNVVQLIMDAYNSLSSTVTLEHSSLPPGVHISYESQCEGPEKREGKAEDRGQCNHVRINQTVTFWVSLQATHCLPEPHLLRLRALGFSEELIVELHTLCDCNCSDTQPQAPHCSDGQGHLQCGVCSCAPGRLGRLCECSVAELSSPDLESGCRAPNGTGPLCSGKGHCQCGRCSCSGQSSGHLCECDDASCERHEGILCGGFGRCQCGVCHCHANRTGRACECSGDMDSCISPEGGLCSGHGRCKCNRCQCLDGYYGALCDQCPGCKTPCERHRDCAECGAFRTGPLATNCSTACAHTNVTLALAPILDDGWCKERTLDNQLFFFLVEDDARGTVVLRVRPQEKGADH
Kind of test: Integrin α4β7—MAdCAM-1 ELISA competition assay. The conditions noted are these: for ELISA Assay Ratio b1/b7: ratio of a4b1 to a4b7 ELISA IC50; for IC50: read-out: ELISA a4b7 Assay IC50. It counts as binding. (An ELISA detects its analyte on a solid surface through an enzyme-linked reagent.)

As a reminder, the IC50 is the concentration that inhibits the measured activity by half. `CC[C@H](C)[C@@H]1NC(=O)[C@H](CC(=O)O)NC(=O)[C@H](CC(C)C)NC(=O)C[C@@H](CCCCN)NC(=O)[C@H](Cc2ccccc2)NC(=O)[C@@H]2CCCN2[C@H](C(=O)NC(C)(C)C)[C@H](C)NC1=O` [Compound 220]: the “ELISA Assay Ratio b1/b7” value is 18.2 and the concentration for half-maximal inhibition (IC50) came out at 96 nM.

In the case of `CC(C)C[C@@H]1NC(=O)C[C@H]2CCCN2C(=O)[C@H](Cc2ccc(CN)cc2)NC(=O)[C@@H]2CCCN2[C@H](C(=O)NC(C)(C)C)[C@H](C)NC(=O)[C@H]([C@@H](C)O)NC(=O)[C@H](CC(=O)O)NC1=O` [Compound 230], the half-inhibitory concentration (IC50) was 120 nM.

Turning to `CC(C)C[C@@H]1NC(=O)C[C@H](CCCCN)NC(=O)[C@H](Cc2ccc(CN)cc2)NC(=O)[C@@H]2CCCN2[C@H](C(=O)NC(C)(C)C)[C@H](C)NC(=O)[C@H](C(C)C)NC(=O)[C@H](CC(=O)O)NC1=O` [Compound 254], the “ELISA Assay Ratio b1/b7” value worked out at 33.0 and the 50% inhibitory concentration (IC50) was 55 nM.

With `CC(C)C[C@@H]1NC(=O)C[C@H](CCCCN)NC(=O)[C@H](Cc2cccc(I)c2)NC(=O)[C@@H]2CCCN2[C@H](C(=O)NC(C)(C)C)[C@H](C)NC(=O)[C@H]([C@@H](C)O)NC(=O)[C@H](CC(=O)O)NC1=O` [Compound 255], the IC50 is 43 nM.

As for `COc1ccccc1-c1cccc(C[C@@H]2NC(=O)[C@@H]3CCCN3[C@H](C(=O)NC(C)(C)C)[C@H](C)NC(=O)[C@H]([C@@H](C)O)NC(=O)[C@H](CC(=O)O)NC(=O)[C@H](CC(C)C)NC(=O)C[C@H](CCCCN)NC2=O)c1` [Compound 257], the half-maximal inhibitory concentration (IC50) amounted to 58 nM.

As for `CC(C)C[C@@H]1NC(=O)C[C@H](CCCCN)NC(=O)[C@H](Cc2ccc(-c3ccccc3OC(F)(F)F)cc2)NC(=O)[C@@H]2CCCN2[C@H](C(=O)NC(C)(C)C)[C@H](C)NC(=O)[C@H]([C@@H](C)O)NC(=O)[C@H](CC(=O)O)NC1=O` [Compound 262], the IC50 turned out to be 80 nM.

As to `CC(C)C[C@@H]1NC(=O)C[C@H](CCCCN)NC(=O)[C@H](Cc2ccccc2)N(C)C(=O)[C@@H]2CCCN2[C@H](C(=O)NC(C)(C)C)[C@H](C)NC(=O)[C@H]([C@@H](C)O)NC(=O)[C@H](CC(=O)O)NC1=O` [Compound 264], the IC50 was 117 nM.

Turning to `CC(C)C[C@@H]1NC(=O)C[C@H](CCCCN)NC(=O)[C@H](Cc2cccc(-c3ccc(F)c(F)c3)c2)NC(=O)[C@@H]2CCCN2[C@H](C(=O)NC(C)(C)C)[C@H](C)NC(=O)[C@H]([C@@H](C)O)NC(=O)[C@H](CC(=O)O)NC1=O` [Compound 267], the half-maximal inhibitory concentration (IC50) turned out to be 44 nM.

On to `Cc1cccc(C)c1-c1ccccc1C[C@@H]1NC(=O)[C@@H]2CCCN2[C@H](C(=O)NC(C)(C)C)[C@H](C)NC(=O)[C@H]([C@@H](C)O)NC(=O)[C@H](CC(=O)O)NC(=O)[C@H](CC(C)C)NC(=O)C[C@H](CCCCN)NC1=O` [Compound 272], for which the “ELISA Assay Ratio b1/b7” value turned out to be 58.1 and the IC50 was 41 nM.

Take `Cc1noc(C)c1-c1ccccc1C[C@H]1NC(=O)[C@@H]2CCCN2[C@H](C(=O)NC(C)(C)C)[C@H](C)NC(=O)[C@H]([C@@H](C)O)NC(=O)[C@H](CC(=O)O)NC(=O)[C@H](CC(C)C)NC(=O)C[C@H](CCCCN)NC1=O` [Compound 276]: the “ELISA Assay Ratio b1/b7” value amounted to 106.2 and the IC50 came to 134 nM.

As for `COc1cccc(Cl)c1-c1ccccc1C[C@@H]1NC(=O)[C@@H]2CCCN2[C@H](C(=O)NC(C)(C)C)[C@H](C)NC(=O)[C@H]([C@@H](C)O)NC(=O)[C@H](CC(=O)O)NC(=O)[C@H](CC(C)C)NC(=O)C[C@H](CCCCN)NC1=O` [Compound 279], the IC50 was determined as 100 nM.

For the molecule `CC(C)C[C@@H]1NC(=O)C[C@H](CCCCN)NC(=O)C2(CCc3ccccc3C2)NC(=O)[C@@H]2CCCN2[C@H](C(=O)NC(C)(C)C)[C@H](C)NC(=O)[C@H]([C@@H](C)O)NC(=O)[C@H](CC(=O)O)NC1=O` (stereo partly drawn) [Compound 282], the IC50 is 119 nM.

On to `CC(C)C[C@@H]1NC(=O)C[C@H](CCCCN)NC(=O)[C@H](Cc2ccccc2-c2cc(C(F)(F)F)ccc2C(F)(F)F)NC(=O)[C@@H]2CCCN2[C@H](C(=O)NC(C)(C)C)[C@H](C)NC(=O)[C@H]([C@@H](C)O)NC(=O)[C@H](CC(=O)O)NC1=O` [Compound 286], for which the IC50 came out at 64 nM.

Take `CC(C)C[C@@H]1NC(=O)C[C@H](CCCCN)NC(=O)[C@H](Cc2ccccc2-c2cc(C(F)(F)F)ccc2C(F)(F)F)NC(=O)[C@@H]2CCCN2[C@H](C(=O)NC(C)(C)C)[C@H](C)NC(=O)[C@H]([C@@H](C)O)NC(=O)[C@H](CC(=O)O)NC1=O` [Compound 287]: the IC50 came out at 84 nM.

Consider `CC(C)C[C@@H]1NC(=O)C[C@H](CCCCN)NC(=O)[C@H](Cc2ccccc2-c2cccnc2)NC(=O)[C@@H]2CCCN2[C@H](C(=O)NC(C)(C)C)[C@H](C)NC(=O)[C@H]([C@@H](C)O)NC(=O)[C@H](CC(=O)O)NC1=O` [Compound 292], for which the IC50 was 30 nM.

On to `CC(C)C[C@@H]1NC(=O)C[C@H](CCCCN)NC(=O)[C@H](Cc2ccccc2-c2ncccc2Br)NC(=O)[C@@H]2CCCN2[C@H](C(=O)NC(C)(C)C)[C@H](C)NC(=O)[C@H]([C@@H](C)O)NC(=O)[C@H](CC(=O)O)NC1=O` [Compound 294], for which the IC50 is 45 nM.

With `CC(C)C[C@@H]1NC(=O)C[C@H](CCCCN)NC(=O)[C@H](Cc2ccccc2-c2cccnc2Br)NC(=O)[C@@H]2CCCN2[C@H](C(=O)NC(C)(C)C)[C@H](C)NC(=O)[C@H]([C@@H](C)O)NC(=O)[C@H](CC(=O)O)NC1=O` [Compound 297], the IC50 was 37 nM.

Regarding `COc1cccc(Cl)c1-c1cccc(C[C@@H]2NC(=O)[C@@H]3CCCN3[C@H](C(=O)NC(C)(C)C)[C@H](C)NC(=O)[C@H]([C@@H](C)O)NC(=O)[C@H](CC(=O)O)NC(=O)[C@H](CC(C)C)NC(=O)C[C@H](CCCCN)NC2=O)c1` [Compound 298], the IC50 was 76 nM.

With `CC(C)C[C@@H]1NC(=O)c2ccc(Br)c(c2)CNC(=O)[C@H](Cc2ccc(O)cc2)NC(=O)[C@@H]2CCCN2[C@H](C(=O)NC(C)(C)C)[C@H](C)NC(=O)[C@H]([C@@H](C)O)NC(=O)[C@H](CC(=O)O)NC1=O` [Compound 336], the “ELISA Assay Ratio b1/b7” value is 5.6 and the IC50 came to 162 nM.

Regarding `C[C@@H]1NC(=O)[C@H]([C@@H](C)O)NC(=O)[C@H](CC(=O)O)NC(=O)[C@H](CC(C)(C)C)NC(=O)c2ccc(-c3ccnc4ccccc34)c(c2)CNC(=O)[C@@H]2CCCN2[C@@H]1C(=O)NC(C)(C)C` [Compound 355], the half-maximal inhibitory concentration (IC50) is 48 nM.

Take `CC(C)C[C@@H]1NC(=O)c2cccc(c2)CN(Cc2ccccc2)C(=O)[C@@H]2CCCN2[C@H](C(=O)NC(C)(C)C)[C@H](C)NC(=O)[C@H]([C@@H](C)O)NC(=O)[C@H](CC(=O)O)NC1=O` [Compound 357]: the IC50 came to 102 nM.

In the case of `CC(C)C[C@@H]1NC(=O)c2ccc(N3CCOCC3)c(c2)CNC(=O)[C@@H]2CCCN2[C@H](C(=O)NC(C)(C)C)[C@H](C)NC(=O)[C@H]([C@@H](C)O)NC(=O)[C@H](CC(=O)O)NC1=O` [Compound 379], the “ELISA Assay Ratio b1/b7” value was 4.9 and the half-inhibitory concentration (IC50) stood at 33 nM.

For the molecule `CC(C)C[C@@H]1NC(=O)c2ccc(N(C)C)c(c2)CNC(=O)[C@@H]2CCCN2[C@H](C(=O)NC(C)(C)C)[C@H](C)NC(=O)[C@H]([C@@H](C)O)NC(=O)[C@H](CC(=O)O)NC1=O` [Compound 380], the half-maximal inhibitory concentration (IC50) amounted to 41 nM.

On to `CC(C)C[C@@H]1NC(=O)c2ccc(-c3cccc(CN)c3)c(c2)CNC(=O)[C@@H]2CCCN2[C@H](C(=O)NC(C)(C)C)[C@H](C)NC(=O)[C@H]([C@@H](C)O)NC(=O)[C@H](CC(=O)O)NC1=O` [Compound 382], for which the IC50 was determined as 12 nM.
